US20040248844A1, “Method for the treatment or prevention of Flavivirus infections using nucleoside analogues” (priority 2000, published 2004)

Biological target: T1, HCV RNA-dependent RNA polymerase (NS5B protein) (Hepatitis C virus genotype 1b, UniProt P26663)
T1 construct: The cDNA encoding the entire NS5B protein of HCV-Bk strain, genotype 1b; initiator Met (ATG added before the NS5B coding region) (N); made in house; host or cells: Sf9 insect cells, recombinant baculovirus (pBlueBacII, BacNS5B)
T1 sequence (P26663 2420-3010): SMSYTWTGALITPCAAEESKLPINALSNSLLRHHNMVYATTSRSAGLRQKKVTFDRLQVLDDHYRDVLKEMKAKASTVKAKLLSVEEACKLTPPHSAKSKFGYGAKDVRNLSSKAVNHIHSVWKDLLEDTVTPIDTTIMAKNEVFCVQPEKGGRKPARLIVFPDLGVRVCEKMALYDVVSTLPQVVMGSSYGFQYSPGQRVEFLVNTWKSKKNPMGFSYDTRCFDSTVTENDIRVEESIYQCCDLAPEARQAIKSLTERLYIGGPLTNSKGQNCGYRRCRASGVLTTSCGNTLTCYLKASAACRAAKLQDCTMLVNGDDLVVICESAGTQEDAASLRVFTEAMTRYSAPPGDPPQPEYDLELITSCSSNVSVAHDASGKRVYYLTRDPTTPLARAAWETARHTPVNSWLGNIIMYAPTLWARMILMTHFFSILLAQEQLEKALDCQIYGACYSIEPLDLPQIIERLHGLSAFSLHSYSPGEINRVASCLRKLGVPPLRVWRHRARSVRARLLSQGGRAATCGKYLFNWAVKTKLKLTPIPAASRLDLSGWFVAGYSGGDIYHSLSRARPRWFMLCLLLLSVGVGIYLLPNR
Assay: HCV RNA-dependent RNA polymerase assay (in vitro RdRp assay, heteropolymeric RNA template)
Format: biochemical, HCV-Bk strain
Details: natural NTP substrates of purified NS5B in the RdRp assay
Procedure: Compounds were evaluated using an in vitro polymerase assay containing purified recombinant HCV RNA-dependent RNA polymerase (NS5B protein). HCV NS5B was expressed in insect cells using a recombinant baculovirus as vector. The experimental procedures used for the cloning, expression and purification of the HCV NS5B protein are described below. Following are details of the RNA-dependent RNA polymerase assays used to test the compounds.
The cDNA encoding the entire NS5B protein of HCV-Bk strain, genotype 1b, was amplified by PCR using a plasmid containing a cDNA version of the full-length HCV genome as template. The oligonucleotides used to amplify this HCV region were designed to introduce a NheI site followed by an ATG at the 5′ end of the NS5B coding region as well as a BamHI site at the 3′end immediately downstream of the translation stop codon. The amplified sequence, of 1.8 kb, was digested with NheI and BamHI and ligated to a predigested pBlueBacII plasmid (Invitrogen). The resulting recombinant plasmid was designated pBac/NS5B. Sf9 cells were co-transfected with 3 μg of pBac/NS5B, together with 1 μg of linearized baculovirus DNA (Invitrogen), as described in the manufacturer's protocol. Following two rounds of plaque purification, an NS5B-recombinant baculovirus, BacNS5B, was isolated. The presence of the recombinant NS5B protein was determined by western blot analysis (Harlow and Lane, 1988) of BacNS5B-infected Sf9 cells, using a HCV NS5B specific rabbit polyclonal antiserum (anti-NS5B). Infections of Sf9 cells with this plaque purified virus were performed in one-liter spinner flasks at a cell density of 1.2×10^6 cells/ml and a multiplicity of infection of 5.
Sf9 cells were infected as described above. Sixty hours post-infection, cells were harvested then washed twice with phosphate buffer saline (PBS). Total proteins were solubilized as described in Lohmann et al. […] with some modifications. In brief, proteins were extracted in three steps, S1, S2, S3, using lysis buffers (LB) I, LB II and LB III (Lohmann et al, 1997). The composition of LBII was modified to contain 0.1% triton X-100 and 150 mM NaCl to reduce the amount of solubilized NS5B protein at this step. In addition, sonication of cell extracts was avoided throughout the protocol to preserve the integrity of the protein structure.
Soluble NS5B protein in the S3 fraction was diluted to lower the NaCl concentration to 300 mM, then it incubated batchwise with DEAE sepharose beads (Amersham-Pharmacia) for 2 hrs at […], as described by Behrens et al. (1989). Unbound material was cleared by centrifugation for 15 min at 4° C., at 25 000 rpm using a SW41 rotor (Beckman). The supernatant was further diluted to lower the NaCl concentration to 200 mM and subsequently loaded, with a flow rate of 1 ml/min, on a 5 ml HiTrap® heparin column (Amersham-Pharmacia) connected to an FPLC® system (Amersham-Pharmacia). Bound proteins were eluted in 1 ml fractions, using a continuous NaCl gradient of 0.2 to 1 M, over a 25 ml volume. NS5B-containing fractions were identified by sodium dodecyl sulfate polyacrylamide gel electrophoresis (SDS-PAGE), followed by western blotting using the anti-NS5B antiserum at a dilution of 1:2000. Positive fractions were pooled and the elution buffer was exchanged against a 50 mM NaPO4 pH 7.0, 20% glycerol, 0.5% triton X-100 and 10 mM DTT, using a PD-10 column (Amersham-Pharmacia). The sample was then loaded onto a 1 ml HiTrap® SP column (Amersham-Pharmacia), with a flow rate of 0.1 ml/min. Bound proteins were eluted using a continuous 0 to 1 M NaCl gradient over a 15 ml volume. Eluted fractions were analyzed by SDS-PAGE and western blotting. Alternatively, proteins were visualized, following SDS-PAGE, by silver staining using the Silver Stain Plus kit (BiORad) as described by the manufacturer.
RdRp assays were conducted using in vitro transcribed heteropolymeric RNA templates. […]

Row | Compound | measured Kms for the four substrates [µM]
1 | Nc1ncnc2c1ncn2[C@@H]1O[C@H](COP(=O)(O)OP(=O)(O)OP(=O)(O)O)[C@@H](O)[C@H]1O [ATP, reference compound] | 18
2 | Nc1ccn([C@@H]2O[C@H](COP(=O)(O)OP(=O)(O)OP(=O)(O)O)[C@@H](O)[C@H]2O)c(=O)n1 [CTP, reference compound] | 0.5
3 | Nc1nc2c(ncn2[C@@H]2O[C@H](COP(=O)(O)OP(=O)(O)OP(=O)(O)O)[C@@H](O)[C@H]2O)c(=O)[nH]1 [GTP, reference compound] | 0.5
4 | O=c1ccn([C@@H]2O[C@H](COP(=O)(O)OP(=O)(O)OP(=O)(O)O)[C@@H](O)[C@H]2O)c(=O)[nH]1 [UTP, reference compound] | 1.2

Same assay, conditions: purified recombinant NS5B 200 ng; competing NTP at twice Km, other NTPs 100 μM; 2 h at 22° C.; triphosphate form tested

Row | Compound | IC50 [nM]
5 | 6-Chloro- 3′-deoxyguanosine- 5′triphosphate [COMPOUND#32] | 6800
6 | Nc1ccn([C@@H]2O[C@H](COP(=O)(O)OP(=O)(O)OP(=O)(O)O)C[C@H]2O)c(=O)n1 [COMPOUND#2, 3′-deoxycytidine-5′triphosphate] | 36
7 | Nc1nc(=O)n([C@@H]2O[C@H](COP(=O)(O)OP(=O)(O)OP(=O)(O)O)C[C@H]2O)cc1F [COMPOUND#4, 5-Fluoro-3′-deoxycytidine-5′triphosphate] | 300
8 | O=c1ccn([C@@H]2O[C@H](COP(=O)(O)OP(=O)(O)OP(=O)(O)O)C[C@H]2O)c(=O)[nH]1 [COMPOUND#6, 3′-deoxyuridine-5′triphosphate] | 260
9 | O=c1[nH]c(=O)n([C@@H]2O[C@H](COP(=O)(O)OP(=O)(O)OP(=O)(O)O)C[C@H]2O)cc1F [COMPOUND#8, 5-Fluoro-3′-deoxyuridine-5′triphosphate] | 1980
10 | Cc1cn([C@H]2CC[C@@H](COP(=O)(O)OP(=O)(O)OP(=O)(O)O)O2)c(=O)[nH]c1=O [COMPOUND#10, 3′-deoxythymidine-5′triphosphate] | 6400
11 | Nc1nc2c(ncn2[C@@H]2O[C@H](COP(=O)(O)OP(=O)(O)OP(=O)(O)O)C[C@H]2O)c(=O)[nH]1 [COMPOUND#12, 3′-deoxyguanosine-5′triphosphate] | 48
12 | CC(=O)Nc1nc2c(ncn2[C@@H]2O[C@H](COP(=O)(O)OP(=O)(O)OP(=O)(O)O)C[C@H]2O)c(=O)[nH]1 [COMPOUND#14, 2-N-acetyl-3′-deoxyguanosine-5′triphosphate] | 3100
13 | Cc1cn([C@@H]2O[C@H](COP(=O)(O)OP(=O)(O)OP(=O)(O)O)C[C@H]2O)c(=O)nc1N [COMPOUND#16, 5-Methyl-3′-deoxycytidine-5′triphosphate] | 360
14 | Nc1nc(=O)n([C@@H]2O[C@H](COP(=O)(O)OP(=O)(O)OP(=O)(O)O)C[C@H]2O)cc1I [COMPOUND#18, 5-Iodo-3′-deoxycytidine-5′triphosphate] | 6880
15 | Nc1nc(=O)n([C@@H]2O[C@H](COP(=O)(O)OP(=O)(O)OP(=O)(O)O)C[C@H]2O)cc1Cl [COMPOUND#20, 5- = Chloro-3′-deoxycytidine-5′triphosphate] | 180
16 | Nc1nc(O)c2ncn([C@@H]3O[C@H](COP(=O)(O)OP(=O)(O)OP(=O)(O)O)[C@@H](F)[C@H]3O)c2n1 [COMPOUND#22, 3′-fluoro-3′-deoxyguanosine-5′triphosphate] | 120
17 | Nc1ccn([C@@H]2O[C@H](COP(=O)(O)OP(=O)(O)OP(=O)(O)O)[C@@H](F)[C@H]2O)c(=O)n1 [COMPOUND#24, 3′-fluoro-3′-deoxycytidine-5′triphosphate] | 55
18 | O=c1[nH]c(=O)n([C@@H]2O[C@H](COP(=O)(O)OP(=O)(O)OP(=O)(O)O)C[C@H]2O)cc1Cl [COMPOUND#28, 5-Chloro-3′-deoxyuridine-5′triphosphate] | 2100
19 | O=c1[nH]c(=O)n([C@@H]2O[C@H](COP(=O)(O)OP(=O)(O)OP(=O)(O)O)C[C@H]2O)cc1Br [COMPOUND#30, 5-Bromo-3′-deoxyuridine-5′triphosphate] | 2900
20 | [N-]=[N+]=N[C@H]1[C@@H](O)[C@H](n2ccc(N)nc2=O)O[C@@H]1COP(=O)(O)OP(=O)(O)OP(=O)(O)O [COMPOUND#54, 3′-azido-3′-deoxycytidine 5′triphosphate] | 9000
21 | Nc1nc(=O)n([C@@H]2O[C@H](COP(=O)(O)OP(=O)(O)OP(=O)(O)O)C[C@H]2O)cc1I [COMPQUND#26, 5- = Iodp-3′-deoxycytidine-5′triphosphate] | 910
